This note sets out measurements from patent publication US10538497B2, “Compounds as indoleamine 2,3-dioxygenase inhibitors” (Merck Sharp & Dohme Corp., priority 2015, dated 2020).

Assay [1] deals with T1, IDO1 (Homo sapiens (Human), UniProt P14902). Description: IDO1 Cellular Assay in Hela Cells Stimulated with IFNγ. It counts as cell-based. To be noted: Hela cells stimulated with IFNγ 100 ng/mL; read-out: IDO1 HELA Cell Assay, IC50.
The target in assay [2] is T1, IDO1. Description: IDO1 Enzyme Assay. To be noted: HIS-tagged recombinant IDO1, 40 nM.
The target of assay [3] is T1, IDO1. Briefly: IDO1 Cellular Assay in Frozen HEK293 Cells Transiently Transfected with Human IDO1. In kind it is cell-based. Conditions: HEK293 cells transiently transfected with human IDO1; read-out: IDO1 HEK293 Cell Assay, IC50.
Setting [4] is: read-out: IDO1 Enzyme Assay, IC50.

T1 sequence (P14902 whole entry): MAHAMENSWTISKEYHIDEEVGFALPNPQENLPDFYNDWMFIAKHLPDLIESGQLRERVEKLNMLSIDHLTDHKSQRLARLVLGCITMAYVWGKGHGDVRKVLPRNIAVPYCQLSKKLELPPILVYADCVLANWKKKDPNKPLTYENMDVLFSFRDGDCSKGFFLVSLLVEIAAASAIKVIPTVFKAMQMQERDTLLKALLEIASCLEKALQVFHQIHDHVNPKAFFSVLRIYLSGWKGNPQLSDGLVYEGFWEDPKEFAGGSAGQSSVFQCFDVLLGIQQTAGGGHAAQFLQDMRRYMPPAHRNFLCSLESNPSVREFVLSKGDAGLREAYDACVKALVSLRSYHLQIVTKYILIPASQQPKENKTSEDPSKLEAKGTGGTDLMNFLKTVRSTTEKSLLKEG

For `C[C@@H](O)[C@@H](CO)NC(=O)CSc1nonc1/C(=N/O)Nc1ccc(F)c(Br)c1` [Example 143, 2-({4-[N-(3-bromo-4-fluorophenyl)-N′-hydroxycarbamimidoyl]-1,2,5-oxadiazol-3-yl}sulfanyl)-N-[(1R,2R)-2-hydroxy-1-(hydroxymethyl)propyl]acetamide], the concentration for half-maximal inhibition (IC50) in assay [1] was 0.0348 µM; in assay [2] (setting [4]), 53.9 nM; in assay [3], 0.0651 µM.

On to `CN1C(=O)NC[C@@H]1CSc1nonc1/C(=N/O)Nc1ccc(F)c(C#N)c1` [Example 150, N-(3-cyano-4-fluorophenyl)-N′-hydroxy-4-({[(4R)-3-methyl-2-oxoimidazolidin-4-yl]methyl}sulfanyl)-1,2,5-oxadiazole-3-carboximidamide], for which the IC50 amounted to 0.82 µM in assay [1], 173 nM in assay [2] (setting [4]) and 0.422 µM in assay [3].

Consider `Cc1nccn1CCSc1nonc1C(=NO)Nc1ccc(F)c(Br)c1` [Example 151, N-(3-bromo-4-fluorophenyl)-N′-hydroxy-4-{[2-(2-methyl-1H-imidazol-1-yl)ethyl]sulfanyl}-1,2,5-oxadiazole-3-carboximidamide], for which the IC50 was 0.156 µM in assay [1]; 96.3 nM in assay [2] (IDO1 Enzyme Assay, IC50, nM); 0.0793 µM in assay [3].

For the molecule `ON=C(Nc1ccc(F)c(Br)c1)c1nonc1SCCc1cscn1` [Example 152, N-(3-bromo-4-fluorophenyl)-N′-hydroxy-4-{[2-(1,3-thiazol-4-yl)ethyl]sulfanyl}-1,2,5-oxadiazole-3-carboximidamide], the half-maximal inhibitory concentration (IC50) in assay [1] worked out at 0.331 µM; in assay [2] (IDO1 Enzyme Assay, IC50, nM) it was 97.6 nM; in assay [3] it was 0.166 µM.

For the molecule `Cn1ccnc1CSc1nonc1C(=NO)Nc1ccc(F)c(Br)c1` [Example 153, N-(3-bromo-4-fluorophenyl)-N′-hydroxy-4-{[(1-methyl-1H-imidazol-2-yl)methyl]sulfanyl}-1,2,5-oxadiazole-3-carboximidamide], the half-inhibitory concentration (IC50) in assay [1] stood at 0.0694 µM; in assay [2] (IDO1 Enzyme Assay, IC50, nM) it was 85.4 nM; in assay [3], 0.0657 µM.

`ON=C(Nc1ccc(F)c(Br)c1)c1nonc1SCCn1cncn1` [Example 154, N-(3-bromo-4-fluorophenyl)-N′-hydroxy-4-{[2-(1H-1,2,4-triazol-1-yl)ethyl]sulfanyl}-1,2,5-oxadiazole-3-carboximidamide]: the IC50 in assay [1] is 0.041 µM; in assay [2] (IDO1 Enzyme Assay, IC50, nM), 31.4 nM; in assay [3] it was 0.0261 µM.

Turning to `Cc1nc(CSc2nonc2C(=NO)Nc2ccc(F)c(Br)c2)no1` [Example 155, N-(3-bromo-4-fluorophenyl)-N′-hydroxy-4-{[(5-methyl-1,2,4-oxadiazol-3-yl)methyl]sulfanyl}-1,2,5-oxadiazole-3-carboximidamide], the IC50 was 0.301 µM in assay [1]; 77.7 nM in assay [2] (IDO1 Enzyme Assay, IC50, nM); 0.218 µM in assay [3].

On to `ON=C(Nc1ccc(F)c(Br)c1)c1nonc1SCc1ncon1` [Example 156, N-(3-bromo-4-fluorophenyl)-N′-hydroxy-4-[(1,2,4-oxadiazol-3-ylmethyl)sulfanyl]-1,2,5-oxadiazole-3-carboximidamide], for which the IC50 worked out at 0.114 µM in assay [1]; 58.8 nM in assay [2] (IDO1 Enzyme Assay, IC50, nM); 0.0469 µM in assay [3].

For the molecule `ON=C(Nc1ccc(F)c(Br)c1)c1nonc1SCc1nccs1` [Example 157, N-(3-bromo-4-fluorophenyl)-N′-hydroxy-4-[(1,3-thiazol-2-ylmethyl)sulfanyl]-1,2,5-oxadiazole-3-carboximidamide], the half-inhibitory concentration (IC50) in assay [1] stood at 0.113 µM; in assay [2] (IDO1 Enzyme Assay, IC50, nM), 63.8 nM; in assay [3], 0.104 µM.

Turning to `ON=C(Nc1ccc(F)c(Br)c1)c1nonc1SCC1CCCNC1` (stereo not drawn) [Example 158, N-(3-bromo-4-fluorophenyl)-N′-hydroxy-4-[(piperidin-3-ylmethyl)sulfanyl]-1,2,5-oxadiazole-3-carboximidamide], the IC50 in assay [1] turned out to be 0.233 µM; in assay [2] (IDO1 Enzyme Assay, IC50, nM) it was 95.7 nM; in assay [3], 0.072 µM.

With `ON=C(Nc1ccc(F)c(Br)c1)c1nonc1SCc1c[nH]cn1` [Example 159, N-(3-bromo-4-fluorophenyl)-N′-hydroxy-4-[(1H-imidazol-4-ylmethyl)sulfanyl]-1,2,5-oxadiazole-3-carboximidamide], the IC50 turned out to be 0.153 µM in assay [1]; 105 nM in assay [2] (IDO1 Enzyme Assay, IC50, nM); 0.0817 µM in assay [3].

In the case of `ON=C(Nc1ccc(F)c(Br)c1)c1nonc1SCCF` [Example 160, N-(3-bromo-4-fluorophenyl)-4-[(2-fluoroethyl)sulfanyl]-N′-hydroxy-1,2,5-oxadiazole-3-carboximidamide], the IC50 in assay [1] was found to be 0.126 µM; in assay [2] (IDO1 Enzyme Assay, IC50, nM) it was 65.7 nM; in assay [3], 0.061 µM.

On to `CC#CCSc1nonc1C(=NO)Nc1ccc(F)c(Br)c1` [Example 161, N-(3-bromo-4-fluorophenyl)-4-(but-2-yn-1-ylsulfanyl)-N′-hydroxy-1,2,5-oxadiazole-3-carboximidamide], for which the IC50 worked out at 0.341 µM in assay [1]; 169 nM in assay [2] (IDO1 Enzyme Assay, IC50, nM); 0.188 µM in assay [3].

For the molecule `ON=C(Nc1ccc(F)c(Br)c1)c1nonc1SCC1CCOCC1` [Example 162, N-(3-bromo-4-fluorophenyl)-N′-hydroxy-4-[(tetrahydro-2H-pyran-4-ylmethyl)sulfanyl]-1,2,5-oxadiazole-3-carboximidamide], the IC50 in assay [1] came out at 0.322 µM; in assay [2] (IDO1 Enzyme Assay, IC50, nM) it was 111 nM; in assay [3], 0.167 µM.

Consider `ON=C(Nc1ccc(F)c(Br)c1)c1nonc1SCCN1CCNCC1` [Example 163, N-(3-bromo-4-fluorophenyl)-N′-hydroxy-4-[(2-piperazin-1-ylethyl)sulfanyl]-1,2,5-oxadiazole-3-carboximidamide], for which the IC50 worked out at 0.405 µM in assay [1]; 161 nM in assay [2] (IDO1 Enzyme Assay, IC50, nM); 0.181 µM in assay [3].

On to `CN1CCN(CCSc2nonc2C(=NO)Nc2ccc(F)c(Br)c2)CC1` [Example 164, N-(3-bromo-4-fluorophenyl)-N′-hydroxy-4-{[2-(4-methvlpiperazin-1-yl)ethyl]sulfanyl}-1,2,5-oxadiazole-3-carboximidamide], for which the IC50 in assay [1] came to 0.246 µM; in assay [2] (setting [4]) it was 62.2 nM; in assay [3], 0.0915 µM.

Consider `OC[C@@H](O)CSc1nonc1/C(=N/O)Nc1ccc(F)c(C(F)(F)F)c1` [Example 165, 4-{[(2R)-2,3-dihydroxypropyl]sulfanyl}-N-[4-fluoro-3-(trifluoromethyl)phenyl]-N′-hydroxy-1,2,5-oxadiazole-3-carboximidamide], for which the values for the IC50 in assay [1], in assay [2] (setting [4]) and in assay [3] were 0.159 µM, 126 nM and 0.13 µM, respectively.

As to `OC[C@H](O)CSc1nonc1/C(=N/O)Nc1ccc(F)c(C(F)(F)F)c1` [Example 166, 4-{[(2S)-2,3-dihydroxypropyl]sulfanyl}-N-[4-fluoro-3-(trifluoromethyl)phenyl]-N′-hydroxy-1,2,5-oxadiazole-3-carboximidamide], the IC50 stood at 0.138 µM in assay [1], 126 nM in assay [2] (setting [4]) and 0.114 µM in assay [3].

Turning to `OC[C@H](O)CSc1nonc1/C(=N/O)Nc1ccc(F)c(C(F)F)c1` [Example 167, N-[3-(difluoromethyl)-4-fluorophenyl]-4-{[(2S)-2,3-dihydroxypropyl]sulfanyl}-N′-hydroxy-1,2,5-oxadiazole-3-carboximidamide], the half-maximal inhibitory concentration (IC50) turned out to be 0.0973 µM in assay [1], 142 nM in assay [2] (setting [4]) and 0.11 µM in assay [3].

What is called IC50 is the midpoint of a concentration-inhibition curve.
